Source: patent EP2067861A1, “Animals of the rattus genus wherein msh6 expression is functionally decreased and methods for the generation of specific mutants therefrom” (Koninklijke Nederlandse Akademie van Wetenschappen, priority 2007, dated 2009)
“And” between values parts separate entries of the source, which are not always exact repeats. Equal entries are not always repeated.

Tests used:
[1] = test system: wild-type rats; details: cited from earlier work
[2] = test system: msh6^-/- males; assay: ENU dose-response experiment: fertility of treated founder males; assay type: in vivo, rat
Experimental: All experiments were approved by the Animal Care Committee of the Royal Dutch Academy of Science according to the Dutch legal ethical guidelines. Experiments were designed to minimize the number of required animals and their suffering. Male MSH6 knockout rats (Msh6^1Hubr) of 12 weeks of age were given three weekly intraperitoneal injections of 25, 30 and 35 mg/kg bodyweight ENU. Preparation of ENU (Isopac; Sigma) was done as decribed (for detailed description, see (Smits et al. (2006) Pharmacogenet Genomics 16, 159-69) After the treatment the injected males were monitored for fertility by breeding with one or two females. Pups from these early matings were counted, but not analyzed. Ten weeks after the last injection, fertile males of the highest-dosed fertile group were kept on a weekly breeding scheme with two females to produce F1 progeny for mutational analysis. Animals were housed under standard conditions in groups of two to three per cage per gender under controlled experimental conditions (12-h light/dark cycle, 21±1°C, 60% relative humidity, food and water ad libitum).
The efficiency of ENU is dependent of the dose, reflected by a higher mutagenicity after three weekly administrations of low doses of the mutagen compared to a single high-dose injection (Justice et al. (2000) Mamm Genome 11, 484-8). Furthermore it has been shown that higher ENU concentrations increase the mutation frequency (Smits et al. ([…]) Pharmacogenet Genomics 16, 159-69; Smits and Cuppen (2006) Trends Genet. 22, 232-40). To determine the optimal ENU concentration we performed an ENU dose-response experiment and determined the fertility of the founders. At 12 weeks of age msh6^-/- males were treated with 3 weekly doses of different concentrations of the mutagen. Fertility was determined after a full cycle of spermatogenesis (± 10 weeks) by breeding and/or histological analysis of the testes. At concentrations of 35, 30 and 25 mg/kg, respectively 1/8, 5/8 and 4/6 males were fertile (Table 5). Compared to earlier studies, where at 40 and 35 mg/kg ENU respectively 6/10 and 10/10 rats are fertile (Smits and Cuppen (2006) Trends Genet. 22, 232-40), this is a considerable decrease. It is known that MSH6 deficiency reduces lifespan in both rats (van Boxtel et al. (2007) submitted) and mice (Edelmann (1997) Cell 91, 467-77) as a result of tumor development. MSH6 deficiency increased ENU sensitivity not only in fertility, but also in survival. Whereas untreated msh6^-/- rats show a median survival of 14 months, this is reduced in the ENU treated males to an average mean of 37 ± 3 weeks (∼ 8 months) and no male was alive after 50 weeks of age (Figure 5). This decrease in lifespan was due to the development of tumors, mainly lymphomas (data not shown). […]

For CCN(N=O)C(N)=O [ENU, N-ethyl-N-nitrosourea], the rats fertile ([1]; 35 mg/kg ENU, earlier studies (Smits and Cuppen 2006)) is given as 10/10, the “# Fertile males” value ([1]; Control 3 x 40 mg of ENU per kg bodyweight, 10 males injected) is given as 6/10 and 6 and the “# Fertile males” value ([2]; MSH6^-/- 3 x 25 mg of ENU per kg bodyweight (three weekly injections), 6 males injected, testes histology and/or at least one litter 10 weeks after last injection) is given as 4/6 and 4. For the same molecule, the “# Fertile males” value ([2]; MSH6^-/- 3 x 30 mg of ENU per kg bodyweight (three weekly injections), 8 males injected) was 5/8 and 5, the “# Fertile males” value ([2]; MSH6^-/- 3 x 35 mg of ENU per kg bodyweight (three weekly injections), 8 males injected) was 1/8 and 1 and the “# Fertile males” value ([2]; MSH6^-/- Total of the three dose groups, 24 males injected as printed) was 10.
